System: MPNST multicellular tumor spheroids, viability % test/control
Assay: Anticancer human tumor MPNST cell line growth inhibition;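 further: spheroids exposed to agents for seven days after three days of growth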;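 on viability, T/C: luminescence signal used as surrogate for viable cell amount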
Details: for IC50: curve of first compound; for viability, T/C: stronger effect = lower value
How it was run: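 Complex tumor spheroids combined malignant cells with endothelial cells and mesenchymal stem cells. DNA-damaging drugs and DNA repair inhibitors were tested alone and in combination, at half-log dilutions down from clinical Cmax (top 10 microM if Cmax unknown), 0.25% DMSO final.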

What does the source list for `Cc1sc2c(c1C)C(c1ccc(Cl)cc1)=NC(CC(=O)Nc1ccc(O)cc1)c1nnc(C)n1-2` (stereo not given) + Cn1nnc2c(C(N)=O)ncn2c1=O?
IC50 (second compound 1 µM): 1.44 µM; IC50 (second compound 3.16 µM): 0.813 µM; IC50 (second compound 10 µM): 1.79 µM; IC50 (second compound 31.6 µM): > 3 µM; IC50 (second compound 100 µM): 0.678 µM; viability, T/C (second compound 1 µM, first compound 0.00949 µM): 123%; viability, T/C (second compound 1 µM, first compound 0.03 µM): 97.7%; viability, T/C (second compound 1 µM, first compound 0.0949 µM): 78.7%; viability, T/C (second compound 1 µM, first compound 0.3 µM): 60.5%; viability, T/C (second compound 1 µM, first compound 0.949 µM): 51.3%; viability, T/C (second compound 1 µM, first compound 3 µM): 47.3%; viability, T/C (second compound 3.16 µM, first compound 0.00949 µM): 96.7%; viability, T/C (second compound 3.16 µM, first compound 0.03 µM): 125%; viability, T/C (second compound 3.16 µM, first compound 0.0949 µM): 92.4%; viability, T/C (second compound 3.16 µM, first compound 0.3 µM): 60.4%; viability, T/C (second compound 3.16 µM, first compound 0.949 µM): 49.7%; viability, T/C (second compound 3.16 µM, first compound 3 µM): 45.8%; viability, T/C (second compound 10 µM, first compound 0.00949 µM): 102%; viability, T/C (second compound 10 µM, first compound 0.03 µM): 123%; viability, T/C (second compound 10 µM, first compound 0.0949 µM): 93.8%; viability, T/C (second compound 10 µM, first compound 0.3 µM): 62.7%; viability, T/C (second compound 10 µM, first compound 0.949 µM): 50.7%; viability, T/C (second compound 10 µM, first compound 3 µM): 48.5%; viability, T/C (second compound 31.6 µM, first compound 0.00949 µM): 95.6%; viability, T/C (second compound 31.6 µM, first compound 0.03 µM): 108%; viability, T/C (second compound 31.6 µM, first compound 0.0949 µM): 91.7%; viability, T/C (second compound 31.6 µM, first compound 0.3 µM): 60%; viability, T/C (second compound 31.6 µM, first compound 0.949 µM): 50%; viability, T/C (second compound 31.6 µM, first compound 3 µM): 51.4%; viability, T/C (second compound 100 µM, first compound 0.00949 µM): 91.5%; viability, T/C (second compound 100 µM, first compound 0.03 µM): 87%; viability, T/C (second compound 100 µM, first compound 0.0949 µM): 83.2%; viability, T/C (second compound 100 µM, first compound 0.3 µM): 58.6%; viability, T/C (second compound 100 µM, first compound 0.949 µM): 47.3%; viability, T/C (second compound 100 µM, first compound 3 µM): 43.7%

— PubChem BioAssay AID1845205 (Molecular Pharmacology Branch, DTP, NCI, 2023)
